Laboratory results taken from US20220362311A1, “OPTIMIZED BACTERIA ENGINEERED TO TREAT DISORDERS INVOLVING THE CATABOLISM OF LEUCINE, ISOLEUCINE, AND/OR VALINE” (Synlogic Operating Company, Inc., priority 2019, published 2022).
Read-outs that look alike come from different tables or passages of the source.

Columns and labels:
rat = conditions: cited from earlier work
[1] = High-throughput Adh activity assay in E. coli cell lysates; type: biochemical; conditions: reduction of isovaleraldehyde to isopentanol; secondary screen
Experimental: Cell growth and enzyme preparation. Strains harboring library plasmids were transformed into an E. coli T7 expression host. 5 μL/well of thawed glycerol stocks were stamped into 500 μL/well of LB+100 ug/mL Carbenicillin (LB-Carb100) in half-height deepwell plates, which were sealed with AeraSeals. Samples were incubated at 37° C. and shaken at 1000 RPM in 80% humidity overnight. 50 μL/well of the resulting precultures were stamped into 450 μL/well of LB-Carb100+1 mM IPTG in half-height deepwell plates, which were sealed with AeraSeals. Samples were incubated at 30° C. and shaken at 1000 RPM in 80% humidity overnight. […]
10 uL of lysate was transferred to a half-area flat-bottom plate containing 90 uL/well assay buffer (50 mM MOPS buffer, 0.4 mM NADH, and 30 mM isovaleraldehyde, pH 7.0). Optical absorbance measurements were taken on a plate reader at 340 nm for 10 minutes. […]
To screen the 3×˜1300-member enzyme libraries, high-throughput methods were developed to screen for LeuDH, KivD, and Adh enzyme activities in E. coli cell lysates. […] Cells were lysed, and enzyme activity was measured in cell lysates using enzyme-specific spectrophotometric assays described above in the method section. […]
For each enzyme family, the full library (˜1300 members each) was measured in biological duplicate, and hits were selected based on the highest activity in a single replicate for each enzyme. […]

Molecule: CCC(C)CO (stereo not drawn) [2-methylbutanol]
- Oral LD50 (rat) (rat; oral): 4170 mg/kg

Molecule: CCC(C)C=O (stereo not drawn) [2-methylbutyraldehyde]
- Oral LD50 (rat) (rat; oral): 6884 mg/kg

Molecule: CC(C)CO [Isobutanol]
- Oral LD50 (rat) (rat; oral): 3350 mg/kg
- Oral NOAEL* (rat) (No-Observed-Adverse-Effect) (rat; oral): >1450 mg/kg/day

Molecule: CC(C)C(=O)O [Isobutyric acid]
- Oral LD50 (rat) (rat; oral): 2230 mg/kg

Molecule: CC(C)CCO [Isopentanol]
- Oral NOAEL* (rat) (No-Observed-Adverse-Effect) (rat; in vivo, po): 1250 mg/kg/day
- Oral LD50 (rat) (rat; oral): >5000 mg/kg

Molecule: CC(C)CC=O [Isovaleraldehyde]
- Oral LD50 (rat) (rat; oral): 5740 mg/kg

B1: ADH2 enzyme from S. cerevisiae: parent alcohol dehydrogenase ADH2 from S. cerevisiae (protein, UniProt P00331 2-348, looked up)
Alcohol dehydrogenase 2: SIPETQKAIIFYESNGKLEHKDIPVPKPKPNELLINVKYSGVCHTDLHAWHGDWPLPTKLPLVGGHEGAGVVVGMGENVKGWKIGDYAGIKWLNGSCMACEYCELGNESNCPHADLSGYTHDGSFQEYATADAVQAAHIPQGTDLAEVAPILCAGITVYKALKSANLRAGHWAAISGAAGGLGSLAVQYAKAMGYRVLGIDGGPGKEELFTSLGGEVFIDFTKEKDIVSAVVKATNGGAHGIINVSVSEAAIEASTRYCRANGTVVLVGLPAGAKCSSDVFNHVVKSISIVGSYVGNRADTREALDFFARGLVKSPIKVVGLSSLPEIYEKMEKGQIAGRYVVDTSK
- increase in Adh activity relative to the background lysate activity [1]: did not exhibit activity greater than the background lysate alcohol dehydrogenase activity
